Data set [1] concerns the target T1, 5-HT2C receptor (Homo sapiens, UniProt P28335).
T1 construct: expressed in transfected cells; host or cells: CHO cell line
T1 sequence (P28335 33-458): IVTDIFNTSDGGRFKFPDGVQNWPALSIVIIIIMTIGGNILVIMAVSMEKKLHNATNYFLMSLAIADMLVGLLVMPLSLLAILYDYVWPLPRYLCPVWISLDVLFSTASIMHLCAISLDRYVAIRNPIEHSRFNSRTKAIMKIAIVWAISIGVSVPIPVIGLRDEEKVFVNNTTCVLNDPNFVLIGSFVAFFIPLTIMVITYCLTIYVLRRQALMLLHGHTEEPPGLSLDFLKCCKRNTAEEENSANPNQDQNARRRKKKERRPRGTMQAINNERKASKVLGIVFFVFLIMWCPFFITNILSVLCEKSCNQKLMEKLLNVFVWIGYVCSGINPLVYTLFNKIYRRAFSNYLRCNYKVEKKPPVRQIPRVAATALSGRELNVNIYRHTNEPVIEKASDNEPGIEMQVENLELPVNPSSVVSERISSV
Nature of the data set: Radioligand binding to 5-HT2C receptor ([3H]-5-HT, CHO cell line). The conditions noted are these: read-out: Ki (2C). As to the method: (§1) 1. Binding to Serotonin Receptors
(§2) The binding of compounds of formula (I) to serotonin receptors was determined in vitro by standard methods. The preparations were investigated in accordance with the assays given hereinafter.
Method (a): For the binding to the 5-HT2C receptor the 5-HT2C receptors were radiolabelled with [^3H]-5-HT. The affinity of the compounds for 5-HT2C receptors in a CHO cell line was determined according to the procedure of D. Hoyer, G. Engel and H. O. Kalkman, European J. Pharmacol., 1985, 118, 13-23.

For data set [2], the target named is T2, human 5-HT2B receptors (Homo sapiens, UniProt P41595).
T2 construct: expressed in transfected cells; host or cells: CHO cell line
The data set can be described thus: Radioligand binding to 5-HT2B receptor ([3H]-5-HT, CHO cell line). As for the experimental part: as §1, §2
Method (b): For the binding to the 5-HT2B receptor the 5-HT2B receptors were radiolabelled with [^3H]-5-HT. The affinity of the compounds for human 5-HT2B receptors in a CHO cell line was determined according to the procedure of K. Schmuck, C. Ullmer, P. Engels and H. Lubbert, FEBS Lett., 1994, 342, 85-90.

The target in data set [3] is T3, 5-HT2A receptor (Homo sapiens, UniProt P28223).
T3 construct: expressed in transfected cells; host or cells: CHO cell line
The data set can be described thus: Radioligand binding to 5-HT2A receptor ([125I]-DOI, CHO cell line). The conditions noted are these: read-out: Ki (2A). As for the experimental part:
as §1, §2
Method (c): For the binding to the 5-HT2A receptor the 5-HT2A receptors were radiolabelled with [^125I]-DOI. The affinity of the compounds for 5-HT2A receptors in a CHO cell line was determined according to the procedure of D. J. McKenna and S. J. Peroutka, J. Neurosci., 1989, 9/10, 3482-90.

In data set [4] the target is T4, h5-HT2A receptors (Homo sapiens, UniProt P28223).
T4 construct: expressed in transfected cells; host or cells: CHO cells
The data set can be described thus: Functional activity, FLIPR calcium assay, CHO cells expressing h5-HT2A. Format: cell-based. To be noted: for h5-HT2A Relative Efficacy: maximum fluorescent signal relative to 10 μM 5-HT (defined as 100%). As for the experimental part:
(§3) The functional activity of compounds of formula (I) was assayed using a Fluorimetric Imaging Plate reader (FLIPR):
(§4) CHO cells expressing either the h5-HT2C or h5-HT2A receptors were counted and plated into standard 96 well microtitre plates before the day of testing to give a confluent monolayer. The following day the cells were dye-loaded with the calcium sensitive dye Fluo 3-AM by incubation with serum free culture maintenance media containing pluronic acid and Fluo 3-AM dissolved in DMSO at 37° C. in a CO2 incubator at 95% humidity for approximately 90 minutes. Unincorporated dye was removed by washing with Hanks balanced salt solution containing 20 mM HEPES and 2.5 mM probenecid (the assay buffer) using an automated cell washer to leave a total volume of 100 μl/well.
(§5) The drug (dissolved in 50 μL of assay buffer) was added at a rate of 70 μL/sec to each well of the FLIPR 96 well plate during fluorescence measurements. The measurements are taken at 1 sec intervals and the maximum fluorescent signal was measured (approx 10-15 secs after drug addition) and compared with the response produced by 10 μM 5-HT (defined as 100%) to which it is expressed as a percentage response (relative efficacy).Dose response curves were constructed using Graphpad Prism (Graph Software Inc.).

For data set [5], the target named is T5, h5-HT2C receptors (Homo sapiens, UniProt P28335).
T5 construct: expressed in transfected cells; host or cells: CHO cells
T5 sequence (P28335 33-458): T1 sequence (P28335 33-458)
Nature of the data set: Functional activity, FLIPR calcium assay, CHO cells expressing h5-HT2C. It is filed as cell-based. To be noted: for h5-HT2C Relative Efficacy: maximum fluorescent signal relative to 10 μM 5-HT (defined as 100%). As to the method: as §3, §4, §5

Where [6] appears, read: [3H]-5-HT, human receptor, CHO cell line, read-out: Ki (2B).
[7] abbreviates: FLIPR, Fluo 3-AM, CHO cells, read-out: h5-HT2C EC50.

This is an account of results in US6479534B1, “Indoline derivatives and method of treating obesity” (priority 2000, dated 2002).

pEC50, pKi: −log10 of the molar value. Where a name gives a salt, the structure may show the parent alone. Read-outs that look alike come from different tables or passages of the source.

T2 sequence (P41595 whole entry): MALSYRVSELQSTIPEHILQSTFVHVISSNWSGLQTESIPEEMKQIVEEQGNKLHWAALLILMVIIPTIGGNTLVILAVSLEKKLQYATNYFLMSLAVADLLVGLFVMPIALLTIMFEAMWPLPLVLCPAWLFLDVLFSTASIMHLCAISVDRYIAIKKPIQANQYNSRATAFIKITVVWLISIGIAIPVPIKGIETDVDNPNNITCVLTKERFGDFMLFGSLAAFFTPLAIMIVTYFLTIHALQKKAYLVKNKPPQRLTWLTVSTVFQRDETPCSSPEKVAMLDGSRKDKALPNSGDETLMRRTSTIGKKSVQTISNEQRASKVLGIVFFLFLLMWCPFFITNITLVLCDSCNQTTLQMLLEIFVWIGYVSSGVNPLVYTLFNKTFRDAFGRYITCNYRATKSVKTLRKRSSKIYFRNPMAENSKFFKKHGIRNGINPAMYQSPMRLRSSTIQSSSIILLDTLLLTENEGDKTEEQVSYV
T3 sequence (P28223 whole entry): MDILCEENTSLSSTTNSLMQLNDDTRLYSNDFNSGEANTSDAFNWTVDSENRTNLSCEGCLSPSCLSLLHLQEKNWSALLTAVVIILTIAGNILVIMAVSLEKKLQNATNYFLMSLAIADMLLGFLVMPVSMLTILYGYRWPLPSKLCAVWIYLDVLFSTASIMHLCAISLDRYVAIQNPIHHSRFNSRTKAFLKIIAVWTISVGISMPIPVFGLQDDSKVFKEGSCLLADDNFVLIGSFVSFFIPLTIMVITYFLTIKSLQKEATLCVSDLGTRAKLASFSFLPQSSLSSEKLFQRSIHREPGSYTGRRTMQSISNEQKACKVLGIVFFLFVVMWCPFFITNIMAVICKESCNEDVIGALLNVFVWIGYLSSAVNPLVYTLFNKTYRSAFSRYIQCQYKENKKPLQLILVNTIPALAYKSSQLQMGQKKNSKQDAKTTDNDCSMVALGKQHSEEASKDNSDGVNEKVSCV
T4 sequence (P28223 whole entry): as above

On to `COc1c(F)ccc2c1C1CCCC1N2CC(C)N` (mixture of isomers) [Example 20, (2′S)-[1-[4-(7-Fluoro-1,2,3,3a,4,8b-hexahydro-8-methoxycyclopent[b]indolyl)]-2-propylamine fumarate], for which the pKi in data set [1] is 6.50; in data set [2], 6.44; in data set [3], 6.32. The pEC50 in data set [4] (FLIPR, Fluo 3-AM, CHO cells) was 5.26; in data set [5], 6.33. Also, the “h5-HT2A Relative Efficacy” value in data set [4] was 17%. Besides, the “h5-HT2C Relative Efficacy” value in data set [5] stood at 62%.
As for `NCCN1c2ccccc2[C@H]2CCC[C@H]21.O=C(O)/C=C/C(=O)O` (racemic), the melting point was 172 °C (dec.).
Regarding `C[C@H](N)CN1c2cc(Cl)c(F)cc2C2CCCC21` (single isomer, unassigned; isomer i) [Example 10, (2′S)-1-[4-(6-Chloro-7-fluoro-1,2,3,3a,4,8b-hexahydrocyclopent[b]indolyl)]-2-propylamine isomer I fumarate], the results for the pKi in data set [1], in data set [2] (setting [6]) and in data set [3] were 6.79, 6.96 and 6.01, respectively. The “h5-HT2A Relative Efficacy” value in data set [4] worked out at 20%. Besides, in data set [5] (setting [7]), the pEC50 is 6.13.
Take `COc1cc2c(cc1F)C1CCCC1N2C[C@H](C)N` (single isomer, unassigned; isomer i) [Example 19, (2′S)-1-[4-(7-Fluoro-1,2,3,3a,4,8b-hexahydro-6-methoxycyclopent[b]indolyl)]-2-propylamine isomer I 0.7 fumarate]: the pKi in data set [1] is 7.06; in data set [2], 6.29; in data set [3], 5.94. Also, the “h5-HT2A Relative Efficacy” value in data set [4] was 0%. For the same molecule, in data set [5], the pEC50 is 6.41. In addition, in data set [5], the “h5-HT2C Relative Efficacy” value is reported as 84%.
Take `C[C@H](N)CN1c2cc(Cl)ccc2[C@@H]2CCC[C@@H]21` [Example 2, (2′S, 3aS, 8b5)-[1-[4-(6-Chloro-1,2,3,3a,4,8b-hexahydrocyclopent[b]indolyl)]-2-propylamine hydrochloride]: the pKi was 6.88 in data set [1], 6.52 in data set [2] (setting [6]) and 6.14 in data set [3]. Also, the “h5-HT2A Relative Efficacy” value in data set [4] is on record as 7%. In addition, the pEC50 in data set [5] (setting [7]) was 6.23.
